Results reported in PMC2742306 (Molecular cell, 2009).
Residues, ends and D or L forms follow the SMILES beside them.

How the values were obtained:
Type in all cases: biochemical, E. coli
[1] = biological target: T1, D320A DegS (Escherichia coli, UniProt P0AEE3, D320A); assay: OMP-peptide activation of RseA cleavage by D320A DegS
[2] = biological target: T2, M319A DegS (Escherichia coli, UniProt P0AEE3, M319A); assay: Global fit to MWC allosteric model, M319A DegS
[3] = biological target: T3, K243D/M319A double mutant of DegS (Escherichia coli, UniProt P0AEE3, K243D/M319A); assay: Global fit to MWC allosteric model, K243D/M319A DegS
[4] = biological target: T4, K243D mutant of DegS (Escherichia coli, UniProt P0AEE3, K243D); assay: OMP-peptide activation of RseA cleavage by K243D DegS
[5] = biological target: T3, K243D/M319A double mutant of DegS; assay: OMP-peptide activation of RseA cleavage by K243D/M319A DegS
[6] = biological target: T5, wild-type DegS (Escherichia coli, UniProt P0AEE3)
[7] = biological target: T1, D320A DegS
[8] = biological target: T5, wild-type DegS; conditions: wild-type DegS 0.9 μM trimer; 20 μM rhodamine-FP; saturating peptide
[9] = biological target: T5, wild-type DegS; conditions: wild-type DegS 0.5 μM trimer, YYF 300 μM
[10] = biological target: T5, wild-type DegS; assay: OMP-peptide activation of RseA cleavage by wild-type DegS
[11] = biological target: T4, K243D mutant of DegS
[12] = biological target: T4, K243D mutant of DegS; assay: Global fit to MWC allosteric model, K243D DegS
[13] = biological target: T3, K243D/M319A double mutant of DegS; conditions: saturating peptide
[14] = biological target: T2, M319A DegS; assay: OMP-peptide activation of RseA cleavage by M319A DegS
[15] = biological target: T1, D320A DegS; assay: Global fit to MWC allosteric model, D320A DegS
[16] = M319A, MWC global fit, RseA, not peptide, binding
[17] = K243D, MWC global fit, RseA, not peptide, binding
[18] = D320A, MWC global fit, RseA, not peptide, binding

T4 sequence (P0AEE3 27-355 K243D): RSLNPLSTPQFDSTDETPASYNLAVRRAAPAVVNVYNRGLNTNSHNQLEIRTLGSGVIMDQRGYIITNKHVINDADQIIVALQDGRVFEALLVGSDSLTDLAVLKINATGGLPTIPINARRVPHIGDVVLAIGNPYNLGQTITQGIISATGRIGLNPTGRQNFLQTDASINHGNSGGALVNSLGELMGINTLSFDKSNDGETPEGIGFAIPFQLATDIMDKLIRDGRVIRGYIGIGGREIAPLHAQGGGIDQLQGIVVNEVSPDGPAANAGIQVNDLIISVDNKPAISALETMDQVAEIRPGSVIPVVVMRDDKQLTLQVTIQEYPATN
T1 sequence (P0AEE3 27-355 D320A): as the sequence (P0AEE3 27-355 K243D) above, with D217K, D294A counted along it
T2 sequence (P0AEE3 27-355 M319A): as the sequence (P0AEE3 27-355 K243D) above, with D217K, M293A counted along it
T5 sequence (P0AEE3 27-355): as the sequence (P0AEE3 27-355 K243D) above, with D217K counted along it
T3 sequence (P0AEE3 27-355 K243D/M319A): as the sequence (P0AEE3 27-355 K243D) above, with M293A counted along it

N[C@@H](Cc1ccc(O)cc1)C(=O)N[C@@H](Cc1ccc(O)cc1)C(=O)N[C@@H](Cc1ccccc1)C(=O)O [YYF] (H-Tyr-Tyr-Phe-OH)
EC50 [1]: 4.8 ± 1.2 µM | Hill Constant (peptide activation) ([1]; D320A, 200 μM RseA): 1.4 ± 0.1 | activation relative to wild-type DegS ([1]; D320A, single substrate concentration): only marginally better than wild-type DegS | KRS, dissociation constant of RseA substrate for R-state subunit [2, 16]: 150 µM | KTS, dissociation constant of RseA substrate for T-state subunit [2, 16]: 505 µM | L0, equilibrium constant T/R of unliganded enzyme ([2]; M319A, MWC global fit, enzyme parameter, peptide-independent): 5500 | KTP/KRP ([2]; M319A, MWC global fit, peptide preference for relaxed state): 2.7 | kr, rate constant for cleavage of RseA by substrate-bound R-state subunits ([2]; M319A, MWC global fit, same value for all enzymes and peptides): 3.3 s⁻¹ | reduction of (KTP/KRP)^3 relative to wild-type ([2]; M319A, MWC model): ~100 fold | enzymes in active conformation ([2]; M319A, saturating peptide and substrate, MWC model): about 10% | tighter binding to tense M319A than to tense wild-type DegS ([2]; MWC modeling): about 20 fold | KRS, dissociation constant of RseA substrate for R-state subunit ([3]; RseA, not peptide, binding): 150 µM | KTS, dissociation constant of RseA substrate for T-state subunit ([3]; RseA, not peptide, binding): 505 µM | L0, equilibrium constant T/R of unliganded enzyme ([3]; enzyme parameter, peptide-independent): 90 | KTP/KRP ([3]; peptide preference for relaxed state): 2.1 | kr, rate constant for cleavage of RseA by substrate-bound R-state subunits ([3]; same value for all enzymes and peptides): 3.3 s⁻¹ | EC50 [4]: 6.4 ± 1.6 µM | Hill Constant (peptide activation) ([4]; K243D, 200 μM RseA): 1.4 ± 0.2 | activation relative to wild-type DegS ([4]; K243D, single substrate concentration): only marginally better than wild-type DegS | EC50 [5]: 700 ± 200 nM | Hill Constant (peptide activation) ([5]; K243D/M319A, 200 μM RseA): 1.2 ± 0.1 | Maximum Activity (RseA cleavage) ([5]; K243D/M319A, 200 μM RseA, 23 °C, pH 8.3, average of two or more determinations): 2700 ± 400 M⁻¹ s⁻¹ | L0, equilibrium constant T/R of unliganded enzyme ([6]; MWC global fit, enzyme parameter, peptide-independent): 15000 | KTP/KRP ([6]; MWC global fit, peptide preference for relaxed state): 12.3 | kr, rate constant for cleavage of RseA by substrate-bound R-state subunits ([6]; MWC global fit, same value for all enzymes and peptides): 3.3 s⁻¹ | DegS molecules in active conformation ([6]; saturating peptide and saturating RseA substrate, MWC model): 83% | Vmax (RseA cleavage) ([7]; D320A 0.3 μM trimer, saturating peptide (DNRDGNVYYF 30 μM), 23 °C, pH 8.3): 3.1 ± 0.3 s^−1enz^−1 | Vmax relative to wild-type DegS ([7]; D320A, saturating YYF): roughly within error for wild-type and the mutants | Hill Constant (RseA substrate) ([7]; D320A, saturating peptide): 1.2 ± 0.1 | rate of rhodamine-FP modification in presence of peptide (order) [8]: fastest | Hill Constant (RseA substrate) [9]: 1.4 ± 0.2 | Vmax (RseA cleavage) ([9]; 23 °C, pH 8.3): 2.6 ± 0.2 s^−1enz^−1 | EC50 [10]: 29 ± 3 µM | displacement in concentration between YYF and YQF activation curves ([10]; wild-type DegS): ~10 fold | Hill Constant (peptide activation) ([10]; wild-type DegS, 200 μM RseA): 1.7 ± 0.1 | Vmax (RseA cleavage) ([11]; K243D 0.3 μM trimer, saturating peptide (DNRDGNVYYF 30 μM), 23 °C, pH 8.3): 2.3 ± 0.1 s^−1enz^−1 | Vmax relative to wild-type DegS ([11]; K243D, saturating YYF): roughly within error for wild-type and the mutants | Hill Constant (RseA substrate) ([11]; K243D, saturating peptide): 1.3 ± 0.1 | reduction of (KTP/KRP)^3 relative to wild-type ([12]; K243D (range given for K243D and D320A together), MWC model): 30–70 fold | KRS, dissociation constant of RseA substrate for R-state subunit [12, 17]: 150 µM | KTS, dissociation constant of RseA substrate for T-state subunit [12, 17]: 505 µM | L0, equilibrium constant T/R of unliganded enzyme ([12]; K243D, MWC global fit, enzyme parameter, peptide-independent): 180 | KTP/KRP ([12]; K243D, MWC global fit, peptide preference for relaxed state): 3.0 | kr, rate constant for cleavage of RseA by substrate-bound R-state subunits ([12]; K243D, MWC global fit, same value for all enzymes and peptides): 3.3 s⁻¹ | enzymes in active conformation ([12]; K243D, saturating peptide and RseA, MWC model): about 85% | Hill Constant (RseA substrate) [13]: 1.2 ± 0.1 | Vmax (RseA cleavage) ([13]; 23 °C, pH 8.3): 2.1 ± 0.2 s^−1enz^−1 | EC50 [14]: 3.2 ± 0.4 µM | Hill Constant (peptide activation) ([14]; M319A, 200 μM RseA): 1.1 ± 0.1 | Maximum Activity (RseA cleavage) ([14]; M319A, 200 μM RseA, 23 °C, pH 8.3, average of two or more determinations): 120 ± 20 M⁻¹ s⁻¹ | decrease of half-maximal activation concentration relative to wild-type DegS ([14]; M319A, lower than wild-type): 10 fold | decrease of peptide-activated activity relative to wild-type DegS ([14]; M319A, saturating YYF, lower than wild-type value): 20 fold | reduction of (KTP/KRP)^3 relative to wild-type ([15]; D320A (range given for K243D and D320A together), MWC model): 30–70 fold | KRS, dissociation constant of RseA substrate for R-state subunit [15, 18]: 150 µM | KTS, dissociation constant of RseA substrate for T-state subunit [15, 18]: 505 µM | L0, equilibrium constant T/R of unliganded enzyme ([15]; D320A, MWC global fit, enzyme parameter, peptide-independent): 350 | KTP/KRP ([15]; D320A, MWC global fit, peptide preference for relaxed state): 4.1 | kr, rate constant for cleavage of RseA by substrate-bound R-state subunits ([15]; D320A, MWC global fit, same value for all enzymes and peptides): 3.3 s⁻¹ | enzymes in active conformation ([15]; D320A, saturating peptide and RseA, MWC model): about 85%
